Source: patent publication EP0881220A1, “DIARYLSULTAM DERIVATIVES” (priority 1996, dated 1997)

Key:
Dopamine D2 = target: T1, Dopamine D2 (Rattus norvegicus, UniProt P61169); test: Binding to dopaminergic receptors using rat striata (method of Terai et al.)
T1 construct: dopaminergic receptors was also measured using rat striata; from tissue; host or cells: rat striata
Method: The binding of these compounds to dopaminergic receptors was also measured using rat striata according to the method described by Terai et al. (M. Terai, et al., Eur. J. Pharmacol. 1989, 173, 177).

sigma 2 binding site = target: T2, sigma 2 binding site (Rattus norvegicus, UniProt Q5U3Y7); test: Sigma 2 selective receptor binding inhibition assay with [^3H]-di-o-tolylguanidine
T2 sequence (Q5U3Y7 1-176): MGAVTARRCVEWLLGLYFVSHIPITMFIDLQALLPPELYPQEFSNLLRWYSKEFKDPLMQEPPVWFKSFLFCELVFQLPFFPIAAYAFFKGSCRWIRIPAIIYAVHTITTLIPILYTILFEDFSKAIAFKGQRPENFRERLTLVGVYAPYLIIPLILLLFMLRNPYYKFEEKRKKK

sigma 1 binding site = sigma 1 binding site (Cavia porcellus, UniProt Q60492)
Sequence of sigma 1 binding site (Q60492 whole entry): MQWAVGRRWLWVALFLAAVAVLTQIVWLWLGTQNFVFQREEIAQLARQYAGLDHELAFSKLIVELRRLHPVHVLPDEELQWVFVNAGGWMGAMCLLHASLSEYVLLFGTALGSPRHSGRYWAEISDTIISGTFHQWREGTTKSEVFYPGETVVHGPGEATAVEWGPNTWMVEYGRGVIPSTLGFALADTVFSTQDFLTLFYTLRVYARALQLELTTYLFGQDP

T1 sequence (P61169 whole entry): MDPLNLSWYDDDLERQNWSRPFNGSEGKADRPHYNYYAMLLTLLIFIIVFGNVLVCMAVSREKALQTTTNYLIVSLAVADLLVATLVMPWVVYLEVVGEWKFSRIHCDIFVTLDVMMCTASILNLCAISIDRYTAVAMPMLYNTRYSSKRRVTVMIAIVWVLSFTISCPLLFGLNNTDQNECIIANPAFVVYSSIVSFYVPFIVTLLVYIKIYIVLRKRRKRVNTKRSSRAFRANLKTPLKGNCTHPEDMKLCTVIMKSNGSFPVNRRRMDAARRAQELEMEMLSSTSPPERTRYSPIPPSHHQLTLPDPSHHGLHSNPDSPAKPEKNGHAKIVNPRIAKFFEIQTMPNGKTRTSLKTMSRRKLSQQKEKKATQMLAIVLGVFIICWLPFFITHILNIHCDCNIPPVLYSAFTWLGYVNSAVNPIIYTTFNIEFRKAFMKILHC

`O=C(O)/C=C/C(=O)O.O=S1(=O)c2ccccc2Oc2ccccc2N1CC1CCN(C[C@H](O)C23CC4CC(CC(C4)C2)C3)CC1.O=S1(=O)c2ccccc2Oc2ccccc2N1CC1CCN(C[C@H](O)C23CC4CC(CC(C4)C2)C3)CC1` [Example 10, (R,S)-1-(1-Adamantyl)-2-[4-(6H-dibenzo[b,f][1,4,5]oxathiazepin-6-yl-methyl)piperidin-1-yl]ethanol S,S-dioxide hemi-fumarate] was tested. Which Ki (Dopamine D2) did it give?
The Ki was over 1000 nM.

And the “S2/S1 Ratio” value (sigma 2 binding site; ratio of Sigma 2 Ki to Sigma 1 Ki)?
Its value is 0.004.

And the Ki (sigma 2 binding site; read-out: Sigma 2 Ki(nM ± SEM), [^3H]-DTG 1 nM, rat liver crude P2 membrane fraction, 500 nM pentazocine, 2 hours at 25°C)?
The Ki was 0.76 nM.

What about the Ki (sigma 1 binding site) of the same molecule?
Its Ki is 200 nM.
